For this assay, the target named is T1, human farnesoid X receptor (Homo sapiens, UniProt Q96RI1).
T1 construct: CMX-farnesoid X receptor (full length human farnesoid X receptor); expressed in transfected cells; host or cells: CV-1 African Green Monkey Kidney cells
T1 sequence (Q96RI1 1-472 isoform Q96RI1-2): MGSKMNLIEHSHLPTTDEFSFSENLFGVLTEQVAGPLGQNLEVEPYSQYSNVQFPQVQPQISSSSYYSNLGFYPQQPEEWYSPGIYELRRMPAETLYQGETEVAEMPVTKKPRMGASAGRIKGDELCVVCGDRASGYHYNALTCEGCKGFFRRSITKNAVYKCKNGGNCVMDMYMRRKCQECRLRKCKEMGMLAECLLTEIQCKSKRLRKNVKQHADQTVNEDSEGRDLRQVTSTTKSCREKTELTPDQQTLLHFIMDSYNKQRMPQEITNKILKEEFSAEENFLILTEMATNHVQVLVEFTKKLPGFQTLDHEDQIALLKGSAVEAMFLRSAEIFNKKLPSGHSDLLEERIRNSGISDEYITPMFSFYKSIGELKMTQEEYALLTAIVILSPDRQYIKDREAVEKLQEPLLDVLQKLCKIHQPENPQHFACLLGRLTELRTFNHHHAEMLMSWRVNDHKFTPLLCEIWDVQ
T1 sequence (P19793 1-462 partner): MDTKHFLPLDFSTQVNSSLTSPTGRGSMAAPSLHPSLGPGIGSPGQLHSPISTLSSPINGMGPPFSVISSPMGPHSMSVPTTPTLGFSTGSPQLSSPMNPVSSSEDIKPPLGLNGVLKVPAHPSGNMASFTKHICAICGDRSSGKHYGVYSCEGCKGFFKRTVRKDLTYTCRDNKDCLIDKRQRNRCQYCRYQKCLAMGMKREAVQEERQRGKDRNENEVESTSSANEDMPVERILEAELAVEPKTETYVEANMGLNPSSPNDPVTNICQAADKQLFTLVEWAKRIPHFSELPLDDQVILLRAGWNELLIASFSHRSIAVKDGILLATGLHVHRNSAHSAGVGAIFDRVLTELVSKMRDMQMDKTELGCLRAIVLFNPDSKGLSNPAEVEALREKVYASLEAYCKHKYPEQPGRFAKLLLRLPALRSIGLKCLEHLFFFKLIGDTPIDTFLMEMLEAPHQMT
Nature of the assay: FXR in vitro assays (farnesoid X receptor/ECREx7 co-transfection assay, TR-FRET assay), Table I. It counts as cell-based. As to conditions: for EC50: agonist activity, one or more of the in vitro assays, read-out: EC50; for Emax: read-out: % Efficacy. The method, boiled down: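 CV-1 monkey kidney cells transfected for an FXR/ECREx7 luciferase co-transfection reporter; luciferase read 18-20 h later in lysates. 8-point dose-response at ½-log spacing, 4 wells per point; EC50/IC50 from four-parameter Hill fit, averaged over at least 3 independent experiments.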
On the technique in general: TR-FRET usually uses a lanthanide donor and a delayed reading to cut background.

In general, EC50 refers to the midpoint of the concentration-response curve. For the compound `CC(C)OC(=O)C1=CN(C(=O)c2cccc(C(F)(F)F)c2F)CC(C)(C)c2c1[nH]c1ccccc21` [Example 133, 1-methylethyl 3-{[2-fluoro-3-(trifluoromethyl)phenyl]car-bonyl}-1,1-dimethyl-1,2,3,6-tetrahydroazepino[4,5-b]indole-5-carboxylate], the half-maximal effective concentration (EC50) lay in the range of 0.01 to 0.1 µM and the Emax was over 100%.
On the same counts, the results for `CC1(C)CN(C(=O)c2ccc(F)c(F)c2)C=C(C(=O)OC(CF)CF)c2[nH]c3ccccc3c21` [Example 136, 2-fluoro-1-(fluoromethyl)ethyl 3-[(3,4-difluorophenyl)carbonyl]-1,1-dimethyl-1,2,3,6-tetrahydroazepino[4,5-b]indole-5-carboxylate] are 0.001 to 0.01 µM and over 100%.
In the case of `CC(C)OC(=O)C1=CN(C(=O)c2ccc(-n3cccn3)cc2)CC(C)(C)c2c1[nH]c1ccccc21` [Example 141, 1-methylethyl 1,1-dimethyl-3-{[4-(1H-pyrazol-1-yl)phenyl]carbonyl}-1,2,3,6-tetrahydroazepino[4,5-b]indole-5-carboxylate], the concentration giving a half-maximal response (EC50) lay within 0.01 to 0.1 µM and the Emax was over 100%.
As to `CC(C)OC(=O)C1=CN(C(=O)c2cccc(C#N)c2)CC(C)(C)c2c1[nH]c1ccccc21` [Example 142, 1-methylethyl 3-[(3-cyanophenyl)carbonyl]-1,1-dimethyl-1,2,3,6-tetrahydroazepino[4,5-b]indole-5-carboxylate], the EC50 was 0.01 to 0.1 µM and the Emax is over 100%.
On the same counts, the results for `CC(C)OC(=O)C1=CN(C(=O)c2ccc(Cl)cc2Cl)CC(C)(C)c2c1[nH]c1ccccc21` [Example 143, 1-methylethyl 3-[(2,4-dichlorophenyl)carbonyl]-1,1-dimethyl-1,2,3,6-tetrahydroazepino[4,5-b]indole-5-carboxylate] are 0.01 to 0.1 µM and over 100%.
For `Cc1cc(C(=O)N2C=C(C(=O)OC(C)C)c3[nH]c4ccccc4c3C(C)(C)C2)ccc1F` [Example 144, 1-methylethyl 3-[(4-fluoro-3-methylphenyl)carbonyl]-1,1-dimethyl-1,2,3,6-tetrahydroazepino[4,5-b]indole-5-carboxylate], in that order: 0.001 to 0.01 µM and over 100%.
For `CC(C)OC(=O)C1=CN(C(=O)c2c(F)ccc(Cl)c2F)CC(C)(C)c2c1[nH]c1ccccc21` [Example 145, 1-methylethyl 3-[(3-chloro-2,6-difluorophenyl)carbonyl]-1,1-dimethyl-1,2,3,6-tetrahydroazepino[4,5-b]indole-5-carboxylate], in that order: 0.1 to 1 µM and over 100%.
As for `CC(C)OC(=O)C1=CN(C(=O)c2ccc(F)c(Cl)c2)CC(C)(C)c2c1[nH]c1ccccc21` [Example 147, 1-methylethyl 3-[(3-chloro-4-fluorophenyl)carbonyl]-1,1-dimethyl-1,2,3,6-tetrahydroazepino[4,5-b]indole-5-carboxylate], the EC50 was in the range of 0.001 to 0.01 µM and the Emax is over 100%.
For the compound `CC(C)OC(=O)C1=CN(C(=O)c2ccc(Cl)c(Cl)c2)CC(C)(C)c2c1[nH]c1ccccc21` [Example 148, 1-methylethyl 3-[(3,4-dichlorophenyl)carbonyl]-1,1-dimethyl-1,2,3,6-tetrahydroazepino[4,5-b]indole-5-carboxylate], the EC50 lay in the range of 0.01 to 0.1 µM and the Emax was over 100%.
Regarding `CC(C)OC(=O)C1=CN(C(=O)c2cc(F)c(Cl)cc2F)CC(C)(C)c2c1[nH]c1ccccc21` [Example 149, 1-methylethyl 3-[(4-chloro-2,5-difluorophenyl)carbonyl]-1,1-dimethyl-1,2,3,6-tetrahydroazepino[4,5- ]indole-5-carboxylate], the EC50 lay within 0.01 to 0.1 µM and the Emax is over 100%.
For `CC(C)OC(=O)C1=CN(C(=O)c2cccc(CN3CCN(S(C)(=O)=O)CC3)c2)CC(C)(C)c2c1[nH]c1ccccc21` [Example 151, 1-methylethyl 1,1-dimethyl-3-[(3-{[4-(methylsulfonyl)piperazin-1-yl]methyl}phenyl)carbonyl]-1,2,3,6-tetrahydroazepino[4,5-b]indole-5-carboxylate], in that order: 0.1 to 1 µM and over 100%.
On the same counts, the results for `CC(C)OC(=O)C1=CN(C(=O)c2cccc(CN3CCCCCC3)c2)CC(C)(C)c2c1[nH]c1ccccc21` [Example 152, 1-methylethyl 3-{[3-(azepan-1-ylmethyl)phenyl]carbonyl}-1,1-dimethyl-1,2,3,6-tetrahydroazepino[4,5-b]indole-5-carboxylate] are 0.01 to 0.1 µM and over 100%.
For `CC(C)OC(=O)C1=CN(C(=O)c2cccc(CN3CCCN(C)CC3)c2)CC(C)(C)c2c1[nH]c1ccccc21` [Example 153, 1-methylethyl 1,1-dimethyl-3-({3-[(4-methyl-1,4-diazepan-1-yl)methyl]phenyl}carbonyl)-1,2,3,6-tetrahydroazepino[4,5-b]indole-5-carboxylate], in that order: 1 to 10 µM and over 100%.
With `CC(C)OC(=O)C1=CN(C(=O)c2ccc(F)c(Br)c2)CC(C)(C)c2c1[nH]c1ccccc21` [Example 154, 1-methylethyl 3-[(3-bromo-4-fluorophenyl)carbonyl]-1,1-dimethyl-1,2,3,6-tetrahydroazepino[4,5-b]indole-5-carboxylate], the half-maximal effective concentration (EC50) fell in the range of 0.01 to 0.1 µM and the Emax was over 100%.
Turning to `CC(C)OC(=O)C1=CN(C(=O)c2cc(CN3CCOCC3)ccc2F)CC(C)(C)c2c1[nH]c1ccccc21` [Example 155, 1-methylethyl 3-{[2-fluoro-5-(morpholin-4-ylmethyl)phenyl]carbonyl}-1,1-dimethyl-1,2,3,6-tetrahydroazepino[4,5-b]indole-5-carboxylate], the EC50 lay within 0.1 to 1 µM and the Emax was over 100%.
As to `CC(C)OC(=O)C1=CN(C(=O)c2ccc3c(c2)nnn3C)CC(C)(C)c2c1[nH]c1ccccc21` [Example 157, 1-methylethyl 1,1-dimethyl-3-[(1-methyl-1H-1,2,3-benzotriazol-5-yl)carbonyl]-1,2,3,6-tetrahydroazepino[4,5-b]indole-5-carboxylate], the EC50 is 0.01 to 0.1 µM and the Emax is over 100%.
For `CC(C)OC(=O)C1=CN(C(=O)c2cccc(OCCN3CCOCC3)c2)CC(C)(C)c2c1[nH]c1ccccc21` [Example 160, 1-methylethyl 1,1-dimethyl-3-({3-[(2-morpholin-4-ylethyl)oxy]phenyl}carbonyl)-1,2,3,6-tetrahydroazepino[4,5-b]indole-5-carboxylate], the Emax was over 100%.
With `CC1(C)CN(C(=O)c2ccc(F)c(F)c2)C=C(C(=O)NOCC(O)CO)c2[nH]c3ccccc3c21` (centres unmarked) [Example 161, 3-[(3,4-difluorophenyl)carbonyl]-N-[(2,3-dihydroxypropyl)oxy]-1,1-dimethyl-1,2,3,6-tetrahydroazepino[4,5-b]indole-5-carboxamide], the EC50 was over 10 µM.
On to `CC1(C)CN(C(=O)c2ccc(F)c(F)c2)C=C(C(=O)NCC(O)CO)c2[nH]c3ccccc3c21` (centres unmarked) [Example 162, 3-[(3,4-difluorophenyl)carbonyl]-N-(2,3-dihydroxypropyl)-1,1-dimethyl-1,2,3,6-tetrahydroazepino[4,5-b]indole-5-carboxamide], for which the EC50 is over 10 µM.
Take `CC1(C)CN(C(=O)c2ccc(F)c(F)c2)C=C(C(=O)NC(CO)CO)c2[nH]c3ccccc3c21` [Example 163, 3-[(3,4-difluorophenyl)carbonyl]-N-[2-hydroxy-1-(hydroxymethyl)ethyl]-1,1-dimethyl-1,2,3,6-tetrahydroazepino[4,5-b]indole-5-carboxamide]: the EC50 was 1 to 10 µM and the Emax was over 100%.
In the case of `CC(C)OC(=O)C1=CN(C(=O)c2cccc(CN3CCN(C(=O)OC(C)(C)C)CC3)c2)CC(C)(C)c2c1[nH]c1ccccc21` [Example 166, 1-methyethyl 3-({3-[(4-{[(1,1-dimethylethyl)oxy]carbonyl}piperazin-1-yl)methyl]phenyl}carbonyl)-1,1-dimethyl-1,2,3,6-tetrahydroazepino[4,5-b]indole-5-carboxylate], the EC50 is 0.1 to 1 µM and the Emax is over 100%.
As to `CC(C)OC(=O)C1=CN(C(=O)c2cccc(CN3CCN(S(=O)(=O)c4ccccc4)CC3)c2)CC(C)(C)c2c1[nH]c1ccccc21` [Example 167, 1-methylethyl 1,1-dimethyl-3-[(3-{[4-(phenylsulfonyl)piperazin-1-yl]methyl}phenyl)carbonyl]-1,2,3,6-tetrahydroazepino[4,5-b]indole-5-carboxylate], the concentration giving a half-maximal response (EC50) fell in the range of 0.1 to 1 µM and the Emax is over 100%.
